Laboratory results from patent publication US10344025B2, “GLS1 inhibitors for treating disease” (Board of Regents, The University of Texas System, priority 2014, dated 2019).

What was measured:
A549 cells = test: Proliferation Assay (A549 viability, Cell Titer Fluor, 72 hours); type: cell-based; conditions: Homo sapiens, A549, 72 h
Outline: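 A549 cells seeded at 1000 cells/well, rested 24 h, then exposed to compound in 0.5% DMSO for 72 h at 37 °C. Viability read by Cell Titer Fluor fluorescence; IC50 from four-parameter logistic fit.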

[1] = molecular target: purified recombinant human GAC (GLS1) (Homo sapiens (Human), UniProt O94925); test: GLS1 Enzymatic Activity Assay (dual-coupled enzymatic assay, resorufin/Amplex UltraRed readout); type: biochemical;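 further: glutamate from GAC coupled via glutamate oxidase and peroxidase to resorufin, read as fluorescence (ex 530, em 590 nm) kinetically or at 20 min, four-parameter logistic IC50 fit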
purified recombinant human GAC (GLS1), sequence (O94925 other isoform, or with tags, fused parts or gaps): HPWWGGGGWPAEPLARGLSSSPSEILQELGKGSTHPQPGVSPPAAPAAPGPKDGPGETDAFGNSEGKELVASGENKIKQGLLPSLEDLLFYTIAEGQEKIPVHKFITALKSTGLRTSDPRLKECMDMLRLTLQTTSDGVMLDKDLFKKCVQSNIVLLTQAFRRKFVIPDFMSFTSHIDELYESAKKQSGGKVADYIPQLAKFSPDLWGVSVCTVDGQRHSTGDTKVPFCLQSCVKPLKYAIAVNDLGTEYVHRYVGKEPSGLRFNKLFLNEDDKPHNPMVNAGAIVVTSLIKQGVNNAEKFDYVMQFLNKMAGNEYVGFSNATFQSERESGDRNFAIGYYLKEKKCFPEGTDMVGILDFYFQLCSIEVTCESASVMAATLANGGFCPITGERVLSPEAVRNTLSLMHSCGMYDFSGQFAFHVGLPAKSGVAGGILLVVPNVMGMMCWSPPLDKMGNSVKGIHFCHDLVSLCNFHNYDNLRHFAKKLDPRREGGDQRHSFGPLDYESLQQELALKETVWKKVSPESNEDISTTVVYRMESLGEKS

| EC50 (A549 cells) [nM] | IC50 [1] [nM] | Compound |
| --- | --- | --- |
| < 100 | < 100 | O=C(NCc1cccc(OC(F)(F)F)c1)c1cn(CCCCc2nnc(C(=O)NCc3cc(C(F)(F)F)ccn3)s2)nn1 [Example 75, 5-{4-[4-({[3-(trifluoromethoxy)phenyl]methyl}carbamoyl)-1H-1,2,3-triazol-1-yl]butyl}-N-{[4-(trifluoromethyl)pyridin-2-yl]methyl}-1,3,4-thiadiazole-2-carboxamide] |
| < 100 | < 100 | O=C(NCc1cccc(OC(F)(F)F)c1)c1cn(CCCCc2nnc(C(=O)NCc3cncc(C(F)(F)F)c3)s2)nn1 [Example 76, 5-{4-[4-({[3-(trifluoromethoxy)phenyl]methyl}carbamoyl)-1H-1,2,3-triazol-1-yl]butyl}-N-{[5-(trifluoromethyl)pyridin-3-yl]methyl}-1,3,4-thiadiazole-2-carboxamide] |
| < 100 | < 100 | O=C(NCc1cccc(OC(F)(F)F)c1)c1cn(CCCCc2nnc(C(=O)NCc3ccc(C(F)(F)F)cn3)s2)nn1 [Example 77, 5-{4-[4-({[3-(trifluoromethoxy)phenyl]methyl}carbamoyl)-1H-1,2,3-triazol-1-yl]butyl}-N-{[5-(trifluoromethyl)pyridin-2-yl]methyl}-1,3,4-thiadiazole-2-carboxamide] |
| < 100 | < 100 | O=C(NCc1cccc(OC(F)(F)F)c1)c1cn(CCCCc2nnc(C(=O)NCc3ccc(C(F)(F)F)nc3)s2)nn1 [Example 78, 5-{4-[4-({[3-(trifluoromethoxy)phenyl]methyl}carbamoyl)-1H-1,2,3-triazol-1-yl]butyl}-N-{[6-(trifluoromethyl)pyridin-3-yl]methyl}-1,3,4-thiadiazole-2-carboxamide] |
| < 100 | < 100 | CC(C)(C)OC(=O)N1CC(CNC(=O)c2cn(CCCCn3cc(C(=O)NCc4cccc(OC(F)(F)F)c4)nn3)nn2)C1 [Example 79, tert-butyl 3-{[(1-{4-[4-({[3-(trifluoromethoxy)phenyl]methyl}carbamoyl)-1H-1,2,3-triazol-1-yl]butyl}-1H-1,2,3-triazol-4-yl)formamido]methyl}azetidine-1-carboxylate] |
| < 100 | < 100 | O=C(NCc1cccc(OC(F)(F)F)c1)c1cn(CCCCn2cc(C(=O)NCc3cncc(C(F)(F)F)c3)nn2)nn1 [Example 80, N-(3-(trifluoromethoxy)benzyl)-1-(4-(4-(((5-(trifluoromethyl)pyridin-3-yl)methyl)carbamoyl)-1H-1,2,3-triazol-1-yl)butyl)-1H-1,2,3-triazole-4-carboxamide] |
| < 100 | < 100 | O=C(NCc1ccc(C(F)(F)F)nc1)c1cn(CCCCn2cc(C(=O)NCc3cccc(OC(F)(F)F)c3)nn2)nn1 [Example 82, 1-{4-[4-({[3-(trifluoromethoxy)phenyl]methyl}carbamoyl)-1H-1,2,3-triazol-1-yl]butyl}-N-{[6-(trifluoromethyl)pyridin-3-yl]methyl}-1H-1,2,3-triazole-4-carboxamide] |
| < 100 | < 100 | O=C(NCc1cccc(OC(F)(F)F)c1)c1cn(CCCCn2cc(C(=O)NCc3cc(C(F)(F)F)ccn3)nn2)nn1 [Example 83, N-{[3-(trifluoromethoxy)phenyl]methyl}-1-{4-[4-({[4-(trifluoromethyl)pyridin-2-yl]methyl}carbamoyl)-1H-1,2,3-triazol-1-yl]butyl}-1H-1,2,3-triazole-4-carboxamide] |
| 100 to 500 | 100 to 500 | O=C(NCc1cncc(C(F)(F)F)c1)c1cn(CCCCn2cc(C(=O)NCC3CCCC3)nn2)nn1 [Example 84] |
| 500 to 5000 | 500 to 5000 | O=C(NCc1cc(C(F)(F)F)ccn1)c1cn(CCCCn2cc(C(=O)NCC3CCC3)nn2)nn1 [Example 85, 1-(4-{4-[(cyclobutylmethyl)carbamoyl]-1H-1,2,3-triazol-1-yl}butyl)-N-{[4-(trifluoromethyl)pyridin-2-yl]methyl}-1H-1,2,3-triazole-4-carboxamide] |
| > 5000 | 500 to 5000 | O=C(NCc1cc(C(F)(F)F)ccn1)c1cn(CCCCn2cc(C(=O)NCC3CCOC3)nn2)nn1 (stereo not drawn) [Example 86] |
| > 5000 | 500 to 5000 | O=C(NCc1cc(C(F)(F)F)ccn1)c1cn(CCCCn2cc(C(=O)NCC3COC3)nn2)nn1 [Example 87] |
| 500 to 5000 | 500 to 5000 | CNC(=O)c1cn(CCCCn2cc(C(=O)NCc3cc(C(F)(F)F)ccn3)nn2)nn1 [Example 88, 1-{4-[4-(methylcarbamoyl)-1H-1,2,3-triazol-1-yl]butyl}-N-{[4-(trifluoromethyl)pyridin-2-yl]methyl}-1H-1,2,3-triazole-4-carboxamide] |
| 500 to 5000 | 500 to 5000 | O=C(NCc1cc(C(F)(F)F)ccn1)c1cn(CCCCn2cc(C(=O)NCC3CC3)nn2)nn1 [Example 89] |
| 100 to 500 | 100 to 500 | O=C(NCc1cc(C(F)(F)F)ccn1)c1cn(CCCCn2cc(C(=O)NCC3CCCCC3)nn2)nn1 [Example 90] |
| > 5000 | 500 to 5000 | O=C(NCc1cncc(C(F)(F)F)c1)c1cn(CCCCn2cc(C(=O)NCC3COC3)nn2)nn1 [Example 91, N-(oxetan-3-ylmethyl)-1-{4-[4-({[5-(trifluoromethyl)pyridin-3-yl]methyl}carbamoyl)-1H-1,2,3-triazol-1-yl]butyl}-1H-1,2,3-triazole-4-carboxamide] |
| 500 to 5000 | 500 to 5000 | O=C(NCc1cncc(C(F)(F)F)c1)c1cn(CCCCn2cc(C(=O)NCC3CCCO3)nn2)nn1 (stereo not drawn) [Example 92, N-(oxolan-2-ylmethyl)-1-{4-[4-({[5-(trifluoromethyl)pyridin-3-yl]methyl}carbamoyl)-1H-1,2,3-triazol-1-yl]butyl}-1H-1,2,3-triazole-4-carboxamide] |
| 500 to 5000 | 100 to 500 | O=C(NCc1cncc(C(F)(F)F)c1)c1cn(CCCCn2cc(C(=O)NCC3CCC3)nn2)nn1 [Example 93, N-(cyclobutylmethyl)-1-{4-[4-({[5-(trifluoromethyl)pyridin-3-yl]methyl}carbamoyl)-1H-1,2,3-triazol-1-yl]butyl}-1H-1,2,3-triazole-4-carboxamide] |
| 100 to 500 | 100 to 500 | O=C(NCc1cccc(OC(F)(F)F)c1)c1cn(CCCCn2cc(C(=O)NCC3CCOCC3)nn2)nn1 [Example 94, N-(oxan-4-ylmethyl)-1-{4-[4-({[3-(trifluoromethoxy)phenyl]methyl}carbamoyl)-1H-1,2,3-triazol-1-yl]butyl}-1H-1,2,3-triazole-4-carboxamide] |
| 100 to 500 | 100 to 500 | CNC(=O)c1cn(CCCCn2cc(C(=O)NCc3cccc(OC(F)(F)F)c3)nn2)nn1 [Example 95, N-methyl-1-{4-[4-({[3-(trifluoromethoxy)phenyl]methyl}carbamoyl)-1H-1,2,3-triazol-1-yl]butyl}-1H-1,2,3-triazole-4-carboxamide] |
| 100 to 500 | 100 to 500 | O=C(NCc1ccccc1)c1cn(CCCCn2cc(C(=O)NCc3cc(C(F)(F)F)ccn3)nn2)nn1 [Example 96, 1-{4-[4-(benzylcarbamoyl)-1H-1,2,3-triazol-1-yl]butyl}-N-{[4-(trifluoromethyl)pyridin-2-yl]methyl}-1H-1,2,3-triazole-4-carboxamide] |
